Earlier results on 1 compound are cited in patent US8637672B2 (Deciphera Pharmaceuticals, LLC, priority 2010, dated 2014).

This data set has as its target VEGFR-2 (KDR kinase) (Homo sapiens, UniProt P35968, DEL940-989/E990V). Particulars: values published in the '188/'556 applications; cited from earlier work.

Sequence of VEGFR-2 (KDR kinase) (P35968 with tags, fused parts or gaps DEL940-989/E990V): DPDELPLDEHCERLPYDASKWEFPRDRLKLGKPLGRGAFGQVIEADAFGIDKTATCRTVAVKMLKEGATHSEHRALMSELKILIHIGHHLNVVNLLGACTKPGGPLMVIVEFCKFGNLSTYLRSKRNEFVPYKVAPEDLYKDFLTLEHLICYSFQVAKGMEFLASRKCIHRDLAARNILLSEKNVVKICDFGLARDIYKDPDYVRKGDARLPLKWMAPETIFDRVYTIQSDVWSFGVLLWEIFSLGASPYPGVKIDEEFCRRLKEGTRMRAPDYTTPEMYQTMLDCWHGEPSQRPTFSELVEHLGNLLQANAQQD

Consider `CN1CCN(C2CCN(C(=O)Nc3cc(Oc4ccc(NC(=O)C5(C(=O)Nc6ccc(F)cc6)CC5)c(F)c4)ccn3)CC2)CC1` [Compound F], for which the IC50 was 240 nM.
